How the values were obtained:
[1] = cited from earlier work
[2] = molecular target: T1, Human pancreatic lipase (Homo sapiens, UniProt P16233); assay: Pancreatic Lipase (PL) inhibitory test (Lipase-PS kit); assay type: biochemical; details: FIG. 3 / FIG. 14
T1 construct: purchased Sigma-Aldrich
T1 sequence (P16233 17-465): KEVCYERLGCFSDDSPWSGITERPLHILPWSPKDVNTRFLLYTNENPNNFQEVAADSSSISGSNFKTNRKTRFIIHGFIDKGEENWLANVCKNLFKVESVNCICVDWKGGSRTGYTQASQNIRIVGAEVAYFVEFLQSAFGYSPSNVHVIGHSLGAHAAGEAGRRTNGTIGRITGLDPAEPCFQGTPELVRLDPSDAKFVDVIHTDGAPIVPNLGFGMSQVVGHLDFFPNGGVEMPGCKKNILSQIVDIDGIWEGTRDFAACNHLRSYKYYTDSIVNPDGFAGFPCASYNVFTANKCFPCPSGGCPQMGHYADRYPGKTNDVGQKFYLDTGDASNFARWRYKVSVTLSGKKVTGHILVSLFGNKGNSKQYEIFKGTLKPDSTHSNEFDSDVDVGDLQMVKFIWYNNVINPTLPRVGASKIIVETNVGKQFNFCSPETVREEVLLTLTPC
T1 sequence (P04118 23-112 partner): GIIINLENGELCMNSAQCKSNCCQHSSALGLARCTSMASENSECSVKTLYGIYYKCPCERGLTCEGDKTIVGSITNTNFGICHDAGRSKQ
Experimental: A Pancreatic Lipase (PL) inhibitory test was performed with a commercial kit (Lipase-PSTM Trinity Biotech USA, Jamestown, N.Y.). Lipase-PSTM reagents were obtained from Trinity Biotech USA (Lipase-PSTM was manufactured by Sigma Diagnostics (Procedure No. 805, Sigma-Aldrich, St. Louis, Mo. until 2003)). […] Louis, Mo.). […] Activator reagent (300 μL) was added and mixed by gentle inversion and the samples were incubated again for 3 min. at 37° C. The recorded rate of increase in absorbance at 550 nm due to the formation of quinone diimine dye was used to determine the pancreatic lipase activity in the samples prepared, as detailed in the literature. Lott, J. A., et al., Lipase Isoforms and Amylase Isoenzymes: Assays and Application in the Diagnosis of Acute Pancreatitis, Clinical Chemistry, 37, 361 (1991); Moreno […]., Fried […]., 2003, Inhibitory effects of grape seed extract on lipases, Nutrition 19, 876-879 (hereinafter “Moreno et al. 2003”).

| Structure (SMILES) | diarrhea (in words) ([1]; literature) | inhibition of dietary fat absorption ([1]; recommended therapeutic dose of 120 mg three times a day) | inhibitory effect on in vitro pancreatic lipase (in words) [2] | inhibitory effect on in vitro pancreatic lipase (in words) ([2]; listed as Esculetin) |
| --- | --- | --- | --- | --- |
| CCCCCCCCCCC[C@@H](C[C@@H]1OC(=O)[C@H]1CCCCCC)OC(=O)[C@H](CC(C)C)NC=O [Orlistat] | common side effect | about 30% | – | – |
| O=c1ccc2cc(O)c(O)cc2o1 [esculetin, 6,7-dihydroxycoumarin] | – | – | particularly strong inhibitory effect | strong inhibitory effect on PL in a dose dependent manner |

Source: patent publication US20050271755A1, “Phytomedicinal compositions for the control of lipid accumulation and metabolism in mammals” (priority 2004, published 2005)
